Experimental findings from PMC10760840, “Synthesis of new imine-/amine-bearing imidazo[1,2-a]pyrimidine derivatives and screening of their cytotoxic activity” (Turkish Journal of Chemistry, 2023) are described below.

Series [1] deals with MCF-7 cells. As to the kind of experiment: Sulforhodamine B (SRB) antiproliferative assay, MCF-7. Format: cell-based, human. The conditions noted are these: for IC50: Homo sapiens, MCF7, 48 h, SRB; for IC50 / inhibition on cell proliferation: MCF-7 cells; for inhibition on cell proliferation: 100 μM dose, SRB screening; for Selectivity index (SI): MCF-7 relative to healthy HUVEC cells. On the procedure: (§1) MCF-7 (human breast cancer) and HUVEC (human umbilical vein endothelial) cell lines were cultured and maintained in high glucose Dulbecco’s modified Eagle medium supplemented with 10% FBS (Gibco Life Technologies, Grand Island, NY, USA), 100 U/mL penicillin, and […]. The MDA–MB-231 (human breast cancer) cell line was cultured in Roswell Park Memorial Institute 1640 (RPMI 1640) medium supplemented with 10% FBS (Gibco Life Technologies), 100 U/mL penicillin, and […]. All cells were passaged by trypsin EDTA when they reached 60%–70% confluence. The cells were cultivated at 37 °C in humidified air containing 5% CO2.
(§2) The antiproliferative effects of compounds on breast cancer cells were determined by the sulforhodamine B (SRB) assay. In short, cells were seeded in a 96-well cell culture plate at a density of 5 × 10^4 cells/mL and the plate was incubated for 24 h in a CO2 incubator at 37 °C. MCF-7, MDA–MB-231, and HUVEC cells were cultured for 48 h with escalating doses (1, 5, 10, 25, 50, and 100 μM) of the derivatives for determination of the IC50 values. After incubation, the medium was removed from the wells and each well was incubated with a 10% trichloroacetic acid (TCA) solution for fixation at +4 °C for 1 h. The wells were washed five times with distilled water (dH2O) to get rid of the TCA and the plate was left to dry. Fresh 0.04 (m/V) SRB dye solution was added to each well, followed by incubation for 30 min at room temperature. The plate was then dried using an air dryer after being washed four times with 1% acetic acid solution. The wells were incubated in 10 mM of the tris-base solution (pH 10.5) for 10 min on a shaker and absorbance values were measured at 565 nm with a microplate reader (Tecan Infinite® 200 PRO, Switzerland). The IC50 values of the compounds were recorded using the software GraphPad Prism 5.

For series [2], the system named is MDA–MB-231 cells. The series can be described thus: Sulforhodamine B (SRB) antiproliferative assay, MDA–MB-231. Format: cell-based, human. The conditions noted are these: for IC50: Homo sapiens, 48 h, SRB; for IC50 / inhibition on cell proliferation: MDA–MB-231 cells; for inhibition on cell proliferation: 100 μM dose, SRB screening; for Selectivity index (SI): MDA–MB-231 relative to healthy HUVEC cells. On the procedure:
as §1, §2
Background: The SRB assay estimates cell density from bound dye.

For series [3], the system named is HUVEC cells. The series can be described thus: Sulforhodamine B (SRB) cytotoxicity assay, HUVEC healthy cells. Format: cell-based. The conditions noted are these: Homo sapiens, 48 h. The procedure:
as §1
The antiproliferative effects of compounds on breast cancer cells were determined by the sulforhodamine B (SRB) assay. In short, cells were seeded in a 96-well cell culture plate at a density of 5 × 10^4 cells/mL and the plate was incubated for 24 h in a CO2 incubator at 37 °C. MCF-7, MDA–MB-231, and HUVEC cells were cultured for 48 h with escalating doses (1, 5, 10, 25, 50, and 100 μM) of the derivatives for determination of the IC50 values. […] The wells were incubated in 10 mM of the tris-base solution (pH 10.5) for 10 min on a shaker and absorbance values were measured at 565 nm with a microplate reader (Tecan Infinite® 200 PRO, Switzerland). The IC50 values of the compounds were recorded using the software GraphPad Prism 5.

Series [4] has as its system Bax/Bcl-2 genes. As to the kind of experiment: Bax/Bcl-2 mRNA expression by qPCR in MDA–MB-231 cells. Format: cell-based, human. The procedure: The mRNA levels of the Bax and Bcl-2 genes were analyzed using a qPCR protocol, following the procedure described previously. Briefly, total RNA was extracted from MDA–MB-231 cells using the Total® RNA Purification Plus Kit, following the manufacturer’s instructions (Norgen Biotek, Thorold, ON, Canada). Subsequently, synthesis of cDNA was carried out using the high-capacity cDNA reverse transcription kit (Applied Biosystems, Foster City, CA, USA). The diluted cDNA samples were combined with specific Taqman probes and Taqman PCR Master Mix, and the amplification was recorded using Applied Biosystems 7500 Real-Time PCR systems (Applied Biosystems, Thermo Fisher Scientific) for qPCR. Changes in mRNA expression levels were determined using the comparative ΔΔCT method, with β-actin serving as an endogenous control for the qPCR analysis.
For orientation: Real-time PCR tracks product formation cycle by cycle.

The melting point is the temperature of the solid-liquid transition. The compound `c1ccc(NCc2cn3cccnc3n2)cc1` [4a, N-(Phenyl)-1-(imidazo[1,2-a]pyrimidin-2-yl)methanamine] registered a melting point of 194 to 197 °C.

Turning to `c1ccc2c(NCc3cn4cccnc4n3)cccc2c1` [4b, N-(Naphthalen-1-yl)-1-(imidazo[1,2-a]pyrimidin-2-yl)methanamine], the melting point fell in the range of 217 to 219 °C.

Regarding `FC(F)(F)c1ccc(N=Cc2cn3cccnc3n2)cc1` [3e, N-(4-Trifluoromethylphenyl)-1-(imidazo[1,2-a]pyrimidin-2-yl)methanimine], the melting point is 224 to 226 °C.

In general, IC50 refers to the point on the concentration scale where inhibition reaches its midpoint. For the compound `CCN(CC)c1ccc(NCc2cn3cccnc3n2)cc1` [4d, N-(4-(N^ı,N^ı-Diethylamino)phenyl)-1-(imidazo[1,2-a]pyrimidin-2-yl)methanamine], the melting point was in the range of 146 to 148 °C. Also, in series [1], the midpoint of inhibition, the IC50, lay at 39 µM; the “inhibition on cell proliferation” value is “greatest inhibition”; the “Selectivity index (SI)” value is listed as 1.5. Moreover, in series [2], the 50% inhibitory concentration (IC50) came out at 35.1 µM, the “inhibition on cell proliferation” value was “greatest inhibition” and the “Selectivity index (SI)” value is recorded as 1.6. Further, 57 µM corresponded to half-maximal inhibition in series [3] (IC50). Further, the “Bax/Bcl-2 ratio (mRNA expression level)” value in series [4] (IC50 dose (4d: 35.1 μM)) was 1.5 fold. For the same compound, in series [4] (IC50 × 2 dose (4d: 70.2 μM)), the “Bax/Bcl-2 ratio (mRNA expression level)” value is reported as 1.8 fold.

For the compound `COc1ccc(NCc2cn3cccnc3n2)cc1` [4c, N-(4-Methoxyphenyl)-1-(imidazo[1,2-a]pyrimidin-2-yl)methanamine], the melting point fell in the range of 175 to 176 °C.

For `CCN(CC)c1ccc(/N=C/c2cn3cccnc3n2)cc1` [3d, N-(4-(N^ı,N^ı-Diethylamino)phenyl)-1-(imidazo[1,2-a]pyrimidin-2-yl)methanimine], the melting point is 182 to 183 °C. Further, in series [1], the IC50 is 43.4 µM, the “inhibition on cell proliferation” value is recorded as “greatest inhibition” and the “Selectivity index (SI)” value amounted to 1.6. In series [2], the IC50 came to 35.9 µM, the “inhibition on cell proliferation” value was “greatest inhibition” and the “Selectivity index (SI)” value amounted to 2.0. Further, in series [3], the IC50 worked out at 71.4 µM. In addition, the “Bax/Bcl-2 ratio (mRNA expression level)” value in series [4] (IC50 dose (4d: 35.1 μM)) was “did not have significant effects”. The “Bax/Bcl-2 ratio (mRNA expression level)” value in series [4] (IC50 × 2 dose (4d: 70.2 μM)) is on record as “did not have significant effects”.

Compound `FC(F)(F)c1ccc(NCc2cn3cccnc3n2)cc1` [4e, N-(4-Trifluoromethylphenyl)-1-(imidazo[1,2-a]pyrimidin-2-yl)methanamine] showed a melting point of 217 to 218 °C.

`COc1ccc(N=Cc2cn3cccnc3n2)cc1` [3c, N-(4-Methoxyphenyl)-1-(imidazo[1,2-a]pyrimidin-2-yl)methanimine] returned a melting point of 191 to 192 °C.
